Experimental data taken from BigSolDB 2.1.

Oc1cc(O)c2cc(O)c(-c3cc(O)c(O)c(O)c3)[o+]c2c1.[Cl-]
solubility (mole fraction)
Settings	298.15 K	303.15 K	308.15 K	313.15 K	318.15 K	323.15 K	328.15 K	333.15 K	338.15 K	343.15 K
in acetone	5.5e-11	6.6e-11	7.1e-11	7.7e-11	8.7e-11	9.8e-11	1.06e-10	1.24e-10	1.35e-10	1.57e-10
in ethanol	5.73e-08	6.13e-08	7.04e-08	7.7e-08	8.59e-08	9.8e-08	1.06e-07	1.23e-07	1.37e-07	1.56e-07
in methanol	5.86e-07	6.62e-07	7.71e-07	8.77e-07	9.71e-07	1.05e-06	1.26e-06	1.4e-06	1.53e-06	1.69e-06
in water	5.35e-07	6.39e-07	6.98e-07	7.87e-07	8.69e-07	1.02e-06	1.11e-06	1.24e-06	1.48e-06	1.64e-06
